Holding throughout (assay type): cell-based
Assay [1] concerns YD-38 cells. As to the kind of experiment: 3 day CellTiter-Glo cell proliferation assay / dose matrix combination, YD-38. As to the method: (§1) YD-38, CAL-33 and CCK-81 cells were cultured at 37° C. in a 5% CO2 incubator using the ATCC media (YD-38, RPMI-1640; CAL-33, DMEM; CCK-81, EMEM) supplemented with 10% FBS (Thermo scientific, SH30071.03). […] L-glutamine (Invitrogen, #25030-081) was also supplemented for CAL-33 media. Cells were passaged twice a week using TryPLE Express (Invitrogen, #12604-013).
(§2) Cell viability was determined by measuring cellular ATP content using the CellTiter-Glo®(CTG) luminescent cell viability assay (Promega #G7573) according to the manufacturer's protocol. Briefly, various number of cells (6000 for CAL-33, 4200 for YD-38 and 7000 for CCK-81) were seeded in 80 μl growth media per well in clear-bottom 96-well black plates (Costar, #3904) in triplicates. Cells were allowed to attach overnight prior to 72 hours of treatment with indicated compounds (serially-diluted where applicable) and/or 75 ng/ml HGF in a volume of 100 ul for HGF rescue experiment (+20 μl compound or HGF) or 140 ul for Chalice combination experiment (+20 μl compound A+20 μl compound B+20 ul media or HGF). At the end of the drug treatment, 100 ul CTG reagent was added to each well to lyse the cells, and luminescence signals were recorded in the Envision plate reader (Perkin Elmer).
(§3) In all combination assays, compounds were applied simultaneously. […] INC280 was subjected to a 7 doses 3× serial dilution with the highest dose at 1.5 μM and the lowest dose at about […]. The synergistic interaction was analyzed using Chalice software (CombinatoRx, Cambridge Mass.). Synergy was calculated by comparing a combination's response to those of its single agents, against the drug-with-itself dose-additive reference model and reported as Synergy Score (Lehar et al., 2009).
(§4) YD-38, CAL-33 and CCK-81 cells were treated in 96-well format for 3 days with HGF alone, Panitumumab alone, Panitumumab as a singal agent and Panitumumab with INC280 in the present or absent of HGF. (FIGS. 6 and 7). Cell viability was measured using the CellTiter-Glo assay. % viability was plotted as bar graphs with mean values and standard deviations from triplicates. […] Each data point represents averaged data from 3 wells +standard deviation, and the color spectrum also represents the level of the inhibition.

In assay [2] the test system is YD-38, CAL-33 and CCK-81 cells. As to the kind of experiment: 3 day CellTiter-Glo proliferation / dose matrix combination, statements over all three cell lines. The protocol: Cell viability was determined by measuring cellular ATP content using the CellTiter-Glo®(CTG) luminescent cell viability assay (Promega #G7573) according to the manufacturer's protocol. Briefly, various number of cells (6000 for CAL-33, 4200 for YD-38 and 7000 for CCK-81) were seeded in 80 μl growth media per well in clear-bottom 96-well black plates (Costar, #3904) in triplicates. […] At the end of the drug treatment, 100 ul CTG reagent was added to each well to lyse the cells, and luminescence signals were recorded in the Envision plate reader (Perkin Elmer).
In all combination assays, compounds were applied simultaneously. […] The synergistic interaction was analyzed using Chalice software (CombinatoRx, Cambridge Mass.). Synergy was calculated by comparing a combination's response to those of its single agents, against the drug-with-itself dose-additive reference model and reported as Synergy Score (Lehar et al., 2009).
YD-38, CAL-33 and CCK-81 cells were treated in 96-well format for 3 days with HGF alone, Panitumumab alone, Panitumumab as a singal agent and Panitumumab with INC280 in the present or absent of HGF. […] Cell viability was measured using the CellTiter-Glo assay. % viability was plotted as bar graphs with mean values and standard deviations from triplicates. […]

Assay [3] deals with CCK-81 cells. The assay is described as follows: 3 day CellTiter-Glo cell proliferation assay / dose matrix combination, CCK-81. The protocol: as §1, §2, §3, §4
Assay [4] deals with CAL-33 cells. The assay is described as follows: 3 day CellTiter-Glo cell proliferation assay / dose matrix combination, CAL-33. The protocol: as §1, §2, §3, §4
Setting [5] is: INC280 single agent, dose matrix.
Where [6] appears, read: co-treatment with 500 nM INC280, 100 nM Cetuximab, 75 ng/ml HGF.
[7] abbreviates: addition of 75 ng/ml HGF together with antibody.

Where “and” joins values, the source holds several entries; their conditions need not be identical. Identical values can stand only once.

Regarding `CNC(=O)c1ccc(-c2cnc3ncc(Cc4ccc5ncccc5c4)n3n2)cc1F` [INC280, 2-fluoro-N-methyl-4-[(7-quinolin-6-yl-methyl)-imidazo[1,2-b]triazin-2-yl]benzamide], the “anti-proliferation effect, single agent” value in assay [1] (setting [5]) was “no anti-proliferation effect”; in assay [2] (INC280 single agent, regardless of HGF addition), “little or no anti-proliferation effect”; in assay [4] (setting [5]) it was “no anti-proliferation effect”. Moreover, the “block of the HGF rescue of Cetuximab effect” value in assay [1] (setting [6]) is listed as “completely blocked”; in assay [3] (setting [6]), “fully blocked”; in assay [4] (setting [6]), “completely blocked”. Further, the “INC280 concentration that re-sensitized HGF-treated cells to Cetuximab” value is reported as 18 nM in assay [1] (presence of HGF, dose matrix); 18 nM in assay [3] (presence of HGF, dose matrix); 18 nM in assay [4] (presence of HGF, dose matrix). Besides, in assay [2] (presence of HGF), the “INC280 concentration that re-sensitized cells to Cetuximab” value is recorded as 18 nM. Moreover, in assay [3] (INC280 at 1.5 μM, presence of HGF, read-out: growth inhibition, single agent), the inhibition at 1.5 µM was about 20%.

Consider “HGF: Recombinant HGF (R&D Systems, 294-HG-005/CF), ligand activating MET [reference compound]”, for which the “growth-stimulating effect of HGF alone” value in assay [1] (75 ng/ml HGF alone) is “no growth-stimulating effect”; in assay [3] (75 ng/ml HGF alone), ~19% and ~20%. The “growth-promoting effect by HGF alone” value in assay [4] (75 ng/ml HGF alone) is about 16%.

Regarding “Panitumumab: fully human monoclonal antibody specific to the epidermal growth factor receptor [reference compound]”, the “HGF rescue of the anti-proliferation effect of the EGFR antibody” value in assay [1] (setting [7]), in assay [3] (setting [7]) and in assay [4] (setting [7]) was “rescued” throughout.

For the origin of these results see US20170224692A1, “Combination Therapy” (Novartis AG, priority 2014, published 2017).
